Data on eight compounds can be found in PMC9143450, “Oxonitrogenated Derivatives of Eremophilans and Eudesmans: Antiproliferative and Anti-Trypanosoma cruzi Activity” (Molecules, 2022).

One series has as its system HBL-100. Description: Antiproliferative SRB assay (NCI protocol), HBL-100. The series is classed as cell-based, human. The following applies: HBL-100 (breast), 48 h drug exposure, SRB, ± SD. As for the experimental part:
(§1) In vitro antiproliferative activity was evaluated using the protocol of the National Cancer Institute (NCI) after 48 h of drug exposure using the sulforhodamine B (SRB) assay.
(§2) The following human solid tumor cell lines were used in this study: HBL-100 (breast), HeLa (cervix), SW1573 (non-small cell lung), T-47D (breast), A549 (lung), and WiDr (colon). These cell lines were a kind gift from Prof. G. J. Peters (VU Medical Center, Amsterdam, The Netherlands). Cells were maintained in 25 cm^2 culture flasks in RPMI 1640 supplemented with 5% heat-inactivated fetal calf serum and 2 mM L-glutamine in a 37 °C, 5% CO2, 95% humidified air incubator. Exponentially growing cells were trypsinized and resuspended in antibiotic containing medium (100 units penicillin G and 0.1 mg of streptomycin per mL). Single cell suspensions displaying > 97% viability by trypan blue dye exclusion test were subsequently counted. After counting, dilutions were made to give the appropriate cell densities for inoculation onto 96-well microtiter plates. Cells were inoculated in a volume of 100 μL per well at densities of 5000 (WiDr and T-47D), and 2500 (A549, HeLa, SW1573 and HBL-100) cells per well, based on their doubling times.
(§3) Chemosensitivity tests were performed using the SRB assay of the NCI with slight modifications. Briefly, pure compounds were initially dissolved in DMSO at 400 times the desired final maximum test concentration. Control cells were exposed to an equivalent concentration of DMSO (0.25% v/v, negative control). Each agent was tested in triplicates at different dilutions in the range 1–100 μM. Drug treatment started on day 1 after plating. Drug incubation periods were 48 h, after which cells were precipitated with 25 μL of ice-cold 50% (w/v) trichloroacetic acid and fixed for 60 min at 4 °C. Then, the SRB assay was performed. The optical density (OD) of each well was measured at 530 nm, using BioTek’s PowerWave XS Absorbance Microplate Reader. Values were corrected for background OD from wells containing only culture medium. The percentage growth (PG) was calculated with respect to untreated control cells (C) at each level of drug concentrations based on the difference in OD at the start time (T0) and at the end of drug exposure (T), according to NCI formulas. Therefore, if T is greater than or equal to T0, the calculation is 100 × ((T − T0)/(C − T0)). If T is lower than T0, denoting cell death, the calculation is 100 × ((T − T0)/(T0)). The effect is defined as the growth percentage, where 50% growth inhibition (GI50) represents the concentration at which PG is +50. Based on these calculations, a PG value of 0 corresponds to the number of cells present at the beginning of drug exposure, while negative PG values denote net cell death.

The next series relates to A549. Briefly: Antiproliferative SRB assay (NCI protocol), A549. The series is classed as cell-based, human. As to conditions: for GI50: A549 (lung), 48 h drug exposure, SRB, ± SD. As for the experimental part:
as §1, §2, §3

The next series concerns T-47D. Description: Antiproliferative SRB assay (NCI protocol), T-47D. Format: cell-based, human. As to conditions: for GI50: T-47D (breast), 48 h drug exposure, SRB, ± SD; for Selectivity index (SI) on tumor cells: CC50 splenocytes / GI50 T-47D. As for the experimental part:
as §1, §2, §3

The subject of the next series is HeLa. Description: Antiproliferative SRB assay (NCI protocol), HeLa. Format: cell-based, human. As to conditions: for GI50: HeLa (cervix), 48 h drug exposure, SRB, ± SD; for Selectivity index (SI) on tumor cells: CC50 splenocytes / GI50 HeLa. As for the experimental part: as §1, §2, §3
The test system of the next series is SW1573. Description: Antiproliferative SRB assay (NCI protocol), SW1573. Format: cell-based, human. As to conditions: for GI50: SW1573 (non-small cell lung), 48 h drug exposure, SRB, ± SD. As for the experimental part:
as §1, §2, §3
(In SRB staining, fixed cells bind dye roughly in proportion to their protein.)

The test system of a further series is WiDr. Description: Antiproliferative SRB assay (NCI protocol), WiDr. The series is classed as cell-based, human. As to conditions: for GI50: WiDr (colon), 48 h drug exposure, SRB, ± SD; for Selectivity index (SI) on tumor cells: CC50 splenocytes / GI50 WiDr. As for the experimental part: as §1, §2, §3
For series [1], the system named is HeLa, T-47D, WiDr, A549, HBL-100, and SW1573 cell lines. Description: Antiproliferative SRB assay, whole panel of human solid tumor cell lines. Format: cell-based. The following applies: solid tumor cell lines evaluated. How it is done: as §1, §2, §3
In series [2] the test system is Trypanosoma cruzi epimastigotes (RA strain). Description: In vitro anti-Trypanosoma cruzi assay ((3H) thymidine uptake). Format: cell-based. The following applies: for Trypanocidal activity (in words): T. cruzi; for IC50: Trypanosoma cruzi, epimastigotes (RA strain), ± SD; for Selectivity Index on T. cruzi epimastigotes: CC50 splenocytes / IC50 epimastigotes. How it is done: Trypanosoma cruzi epimastigotes (RA strain, from discrete typing unit (DTU) VI) were grown in a biphasic medium. Cultures were maintained by weekly passages at 28 °C [18].
The growth inhibition of T. cruzi epimastigotes was evaluated by a (^3H) thymidine uptake assay as previously described. Natural sesquiterpenes and derivatives were evaluated at concentrations ranging from 1.5 to 50 µg/mL. Benznidazole (Active Pharmaceutical Ingredient) was used as positive control (Elea). The percentage of inhibition was calculated as 100 = {((cpm of treated parasites)/(cpm of untreated parasites)) × 100}.
Figure 5 Effect of the natural sesquiterpene tessaric acid (1), ilicic acid (2), and ilicic alcohol (3) and their derivatives on T. cruzi. Epimastigotes (RA strain) were cultured in the presence of the compounds (50–1.5 µg/mL). Determinations were performed by triplicate. The results are expressed as the mean ± SD. (A) Effect of tessaric acid and derivatives on epimastigotes; (B) Effect of ilicic acid and derivatives on epimastigotes; (C) Effect of ilicic alcohol and derivatives on epimastigotes.

A short description of series [3]: Cytotoxicity on primary cell culture (flow cytometry, PI). The series is classed as cell-based. The following applies: Balb/c, mouse, primary splenocytes (spleen cells), ± SD, read-out: Cytotoxic activity on spleen cells (CC50). As for the experimental part:
The cytotoxicity of the natural sesquiterpenes (1–3) and derivatives (4–19) was determined on primary cell cultures (splenocytes obtained from Balb/c mouse). […] Derivatives of tessaric acid have shown an improvement in CC50 values in comparison with the natural sesquiterpene 1. […] All the derivatives synthesized from alcohol ilicic (compounds 10–19) were more toxic to mammalian cells than the natural compound (3).
The cytotoxicity of the compounds was evaluated on splenocytes obtained from Balb/c mouse (1.5 × 10^5) and incubated with different drug dilutions (5–200 μg/mL) as previously described. Cell death was determined by flow cytometry using a BD FACSaria II cytometer. Cells incubated only with drug vehicle were used as 100% viability control, and death percentage was calculated according to the following formula: Death%=1−(%PI^−cells)drug−treated/(%PI^−cells)100% viability control × 100
The concentration capable of causing 50% cell death (CC50) was determined using a non-linear regression approach.

`N.N.[Cl][Pt][Cl]` [Cisplatin, reference compound]: the 50% growth inhibitory concentration (GI50) with HBL-100 was 1.9 µM; in the series with A549 it was 4.9 µM; in the series with T-47D, 17 µM; in the series with HeLa, 1.8 µM; in the series on SW1573 it was 2.7 µM; in the series on WiDr it was 23 µM.
With `C=C(C(=O)O)[C@@H]1CC[C@@]2(C)CCC[C@@](C)(O)[C@@H]2C1` [Compound 2, ilicic acid], in [1], the “Antiproliferative activity (in words)” value is “did not show antiproliferative activity”. In addition, the concentration for 50% growth inhibition (GI50) with HBL-100 (Homo sapiens) was more than 100 µM; with T-47D (Homo sapiens, T47D), more than 100 µM; in the series with HeLa (Homo sapiens), more than 100 µM; in the series with SW1573 (Homo sapiens), more than 100 µM; in the series with WiDr (Homo sapiens), more than 100 µM. The “Trypanocidal activity (in words)” value in [2] is on record as “nor trypanocidal activity”. Also, in [2], the 50% inhibitory concentration (IC50) was more than 198 µM.
For `C=C(CO)[C@@H]1CC[C@@]2(C)CCC[C@@](C)(O)[C@@H]2C1` [Compound 3, ilicic alcohol], the “Antiproliferative activity (in words)” value in series [1] was “did not show antiproliferative activity”. In addition, the concentration for 50% growth inhibition (GI50) in the series with HBL-100 (Homo sapiens) is more than 100 µM; in the series on T-47D (Homo sapiens, T47D) it was more than 100 µM; with HeLa (Homo sapiens), more than 100 µM; in the series with SW1573 (Homo sapiens) it was more than 100 µM; with WiDr (Homo sapiens), more than 100 µM. In series [2], the “Trypanocidal activity (in words)” value is recorded as “nor trypanocidal activity”. Moreover, the IC50 in series [2] came to 156 µM.
Consider `C=C(C(=O)N(c1ccccc1)C(C)(C)C(=O)NC(C)(C)C)[C@@H]1CCC2=CC(=O)C[C@H](C)[C@@]2(C)C1` [Compound 4], for which the GI50 in the series with HBL-100 (Homo sapiens) was more than 100 µM; in the series with A549 (Homo sapiens) it was 68 µM; with T-47D (Homo sapiens, T47D), 95 µM; with HeLa (Homo sapiens) it was 68 µM; in the series with SW1573 (Homo sapiens) it was 57 µM; in the series on WiDr (Homo sapiens), 98 µM. Besides, the “Selectivity index (SI) on tumor cells” value is on record as 0.25 in the series on A549 (CC50 splenocytes / GI50 A549); 0.2 with T-47D; 0.3 in the series on HeLa; 0.3 in the series with SW1573 (CC50 splenocytes / GI50 SW1573); 0.2 with WiDr. Moreover, the “Selectivity Index on T. cruzi epimastigotes” value in series [2] is on record as 1.1. In series [2], this compound yielded an IC50 of 16.3 µM. Further, the CC50 in series [3] was found to be 17.3 µM.
Take `C=C(C(=O)N(Cc1ccccc1)C(C)(C)C(=O)NC(C)(C)C)[C@@H]1CCC2=CC(=O)C[C@H](C)[C@@]2(C)C1` [Compound 5]: the concentration for 50% growth inhibition (GI50) is more than 100 µM in the series on HBL-100 (Homo sapiens); more than 100 µM in the series on A549 (Homo sapiens); more than 100 µM in the series with T-47D (Homo sapiens, T47D); more than 100 µM in the series with HeLa (Homo sapiens); more than 100 µM in the series with SW1573 (Homo sapiens); more than 100 µM in the series with WiDr (Homo sapiens). For the same compound, the “Selectivity Index on T. cruzi epimastigotes” value in [2] came to 4.8. The compound further came in with an IC50 in series [2] of 9.3 µM. In addition, the 50% cytotoxic concentration (CC50) in series [3] stood at 44.7 µM.
Take `C#CCCCc1cn(CC(=C)[C@@H]2CC[C@@]3(C)CCC[C@@](C)(O)C3C2)nn1` (some centres unmarked) [Compound 17]: the “Selectivity index (SI) on tumor cells” value in the series on T-47D was 1.4; in the series with HeLa, 1.3; with WiDr it was 1.3. The GI50 in the series with T-47D (Homo sapiens, T47D) came to 29 µM; in the series with HeLa (Homo sapiens) it was 31 µM; in the series with WiDr (Homo sapiens), 31 µM. The “Selectivity Index on T. cruzi epimastigotes” value in series [2] came to 2.7. In [2], half-maximal inhibition (IC50) was put at 14.8 µM. In [3], the cytotoxic concentration (CC50) is 40.4 µM.
With `C=C(Cn1cc(Cc2ccccc2)nn1)[C@@H]1CC[C@@]2(C)CCC[C@@](C)(O)C2C1` (some centres unmarked) [Compound 18], the “Selectivity index (SI) on tumor cells” value is listed as 1.4 in the series on T-47D and 1.6 in the series on WiDr. Further, the concentration for 50% growth inhibition (GI50) with T-47D (Homo sapiens, T47D) is 44 µM; in the series on HeLa (Homo sapiens), more than 100 µM; in the series with WiDr (Homo sapiens) it was 39 µM. The “Selectivity Index on T. cruzi epimastigotes” value in series [2] is given as 2.1. Also, it took 30.2 µM to reach half-maximal inhibition in series [2] (IC50). For the same compound, the half-maximal cytotoxic concentration (CC50) in series [3] was determined as 62.2 µM.
Regarding `C=C(Cn1cc(-c2ccccc2)nn1)[C@@H]1CC[C@@]2(C)CCC[C@@](C)(O)C2C1` (some centres unmarked) [Compound 19], the “Selectivity index (SI) on tumor cells” value in the series on T-47D came to 3.1; in the series on HeLa, 2.4; in the series with WiDr, 4.6. For the same compound, the GI50 with T-47D (Homo sapiens, T47D) stood at 61 µM; in the series with HeLa (Homo sapiens), 79 µM; with WiDr (Homo sapiens), 41 µM. Moreover, the “Selectivity Index on T. cruzi epimastigotes” value in [2] is listed as 3.9. This compound returned an IC50 in [2] of 48.2 µM. For the same compound, the CC50 in series [3] is 187 µM.

What is called GI50 is the concentration that inhibits growth by half. Lower therefore signals more potent growth inhibition. The term IC50 denotes the point on the concentration scale where inhibition reaches its midpoint. For orientation: CC50 means the concentration that lowers cell viability or growth by half.
